# Data from patent US10092575B2, “Substituted thiophene- and furan-fused azolopyrimidine-5-(6H)-one compounds” (DART NEUROSCIENCE (CAYMAN) LTD., priority 2012, dated 2018).
# Target: human PDE1b enzyme (Homo sapiens (Human), UniProt Q01064)
# Test: PDE1b inhibitory assay (IMAP TR-FRET)
# Conditions: not given
row,Structure (SMILES),EC50 [nM]
1,"COc1ccc(Cn2c(=O)n3ncnc3c3c4c(sc32)NCCC4)cc1OC [Example 100, 6-(3,4-Dimethoxybenzyl)-8,9,10,11-tetrahydropyrido[3′,2′:4,5]thieno[3,2-e][1,2,4]triazolo[1,5-c]pyrimidin-5(6H)-one]",1000 to 10000
2,"COc1ccc(Cn2c(=O)n3nccc3c3cc(CN4C[C@@H](C)O[C@@H](C)C4)sc32)cc1 [Example 104, 2-(((2S,6R)-2,6-Dimethylmorpholino)methyl)-4-(4-methoxybenzyl)pyrazolo[1,5-c]thieno[3,2-e]pyrimidin-5(4H)-one]",100 to 1000
3,"O=c1n(Cc2ccc(Cl)cc2)c2sc3c(c2c2ncnn12)CCN(CC(F)(F)F)C3 [Example 107, 6-(4-Chlorobenzyl)-9-(2,2,2-trifluoroethyl)-8,9,10,11-tetrahydropyrido[4′,3′:4,5]thieno[3,2-e][1,2,4]triazolo[1,5-c]pyrimidin-5 (6H)-one]",100 to 1000
4,"COc1ccc(Cn2c(=O)n3ncnc3c3c4c(sc32)CN(Cc2ccc3c(c2)OC(F)(F)O3)CC4)cc1 [Example 114, 9-((2,2-Difluorobenzo[d][1,3]dioxol-5-yl)methyl)-6-(4-methoxybenzyl)-8,9,10,11-tetrahydropyrido[4′,3′:4,5]thieno[3,2-e][1,2,4]triazolo[1,5-c]pyrimidin-5 (6H)-one]",100 to 1000
5,"COc1ccc(Cn2c(=O)n3ncnc3c3c4c(sc32)CN(C2CS(=O)(=O)C2)CC4)cc1 [Example 124, 9-(1,1-Dioxidothietan-3-yl)-6-(4-methoxybenzyl)-8,9,10,11-tetrahydropyrido[4′,3′:4,5]thieno[3,2-e][1,2,4]triazolo[1,5-c]pyrimidin-5 (6H)-one]",100 to 1000

# Same assay, conditions: negative log of half-maximal molar inhibitory concentration; 200 nM FAM-cAMP; reported as ranges
row,Structure (SMILES),PDE1b (pEC50)
1,"COc1ccc(Cn2c(=O)n3nccc3c3cc(CN4C[C@@H](C)O[C@@H](C)C4)sc32)cc1 [Example 104, 2-(((2S,6R)-2,6-Dimethylmorpholino)methyl)-4-(4-methoxybenzyl)pyrazolo[1,5-c]thieno[3,2-e]pyrimidin-5(4H)-one]",>7
2,"COc1ccc(Cn2c(=O)n3ncnc3c3c4c(sc32)CN(Cc2nnc(C)s2)CC4)cc1 [Example 108, 6-(4-Methoxybenzyl)-9-((5-methyl-1,3,4-thiadiazol-2-yl)methyl)-8,9,10,11-tetrahydropyrido[4′,3′:4,5]thieno[3,2-e][1,2,4]triazolo[1,5-c]pyrimidin-5(6H)-one]",>7
3,"COc1ccc(Cn2c(=O)n3ncnc3c3c4c(sc32)CN(CC2CC2)CC4)cc1 [Example 110, 9-(Cyclopropylmethyl)-6-(4-methoxybenzyl)-8,9,10,11-tetrahydropyrido[4′,3′:4,5]thieno[3,2-e][1,2,4]triazolo[1,5-c]pyrimidin-5 (6H)-one]",>7
4,"COc1ccc(Cn2c(=O)n3ncnc3c3c4c(sc32)CN(CC2(C)COC2)CC4)cc1 [Example 111, 6-(4-Methoxybenzyl)-9-((3-methyloxetan-3-yl)methyl)-8,9,10,11-tetrahydropyrido[4′,3′:4,5]thieno[3,2-e][1,2,4]triazolo[1,5-c]pyrimidin-5 (6H)-one]",>7
5,"COc1ccc(Cn2c(=O)n3ncnc3c3c4c(sc32)CN(CCCSC)CC4)cc1 [Example 112, 6-(4-Methoxybenzyl)-9-(3-(methylthio)propyl)-8,9,10,11-tetrahydropyrido[4′,3′:4,5]thieno[3,2-e][1,2,4]triazolo[1,5-c]pyrimidin-5(6H)-one]",>7
6,"COc1ccc(Cn2c(=O)n3ncnc3c3c4c(sc32)CN(CC2CCOC2)CC4)cc1 (stereo not shown) [Example 113, 6-(4-Methoxybenzyl)-9-((tetrahydrofuran-3-yl)methyl)-8,9,10,11-tetrahydropyrido[4′,3′:4,5]thieno[3,2-e][1,2,4]triazolo[1,5-c]pyrimidin-5(6H)-one]",>7
7,"COc1ccc(Cn2c(=O)n3ncnc3c3c4c(sc32)CN(CC(C)(C)C)CC4)cc1 [Example 115, 6-(4-Methoxybenzyl)-9-neopentyl-8,9,10,11-tetrahydropyrido[4′,3′:4,5]thieno[3,2-e][1,2,4]triazolo[1,5-c]pyrimidin-5(6H)-one]",>7
8,"COc1ccc(Cn2c(=O)n3ncnc3c3c4c(sc32)CN(Cc2ncccn2)CC4)cc1 [Example 116, 6-(4-Methoxybenzyl)-9-(pyrimidin-2-ylmethyl)-8,9,10,11-tetrahydropyrido[4′,3′:4,5]thieno[3,2-e][1,2,4]triazolo[1,5-c]pyrimidin-5 (6H)-one]",>7
9,"COc1ccc(Cn2c(=O)n3ncnc3c3c4c(sc32)CN(CC2CCCCO2)CC4)cc1 (stereo not shown) [Example 117, 6-(4-Methoxybenzyl)-9-((tetrahydro-2H-pyran-2-yl)methyl)-8,9,10,11-tetrahydropyrido[4′,3′:4,5]thieno[3,2-e][1,2,4]triazolo[1,5-c]pyrimidin-5(6H)-one]",>7
10,"COc1ccc(Cn2c(=O)n3ncnc3c3c4c(sc32)CN(CCCS(C)(=O)=O)CC4)cc1 [Example 118, 6-(4-Methoxybenzyl)-9-(3-(methylsulfonyl)propyl)-8,9,10,11-tetrahydropyrido[4′,3′:4,5]thieno[3,2-e][1,2,4]triazolo[1,5-c]pyrimidin-5 (6H)-one]",>7
11,"COc1ccc(Cn2c(=O)n3ncnc3c3c4c(sc32)CN(Cc2ccncn2)CC4)cc1 [Example 119, 6-(4-Methoxybenzyl)-9-(pyrimidin-4-ylmethyl)-8,9,10,11-tetrahydropyrido[4′,3′:4,5]thieno[3,2-e][1,2,4]triazolo[1,5-c]pyrimidin-5(6H)-one]",>7
12,"COc1ccc(Cn2c(=O)n3ncnc3c3c4c(sc32)CN(Cc2ccccn2)CC4)cc1 [Example 120, 6-(4-Methoxybenzyl)-9-(pyridin-2-ylmethyl)-8,9,10,11-tetrahydropyrido[4′,3′:4,5]thieno[3,2-e][1,2,4]triazolo[1,5-c]pyrimidin-5 (6H)-one]",>7
13,"COc1ccc(Cn2c(=O)n3ncnc3c3c4c(sc32)CN(Cc2ccncc2)CC4)cc1 [Example 121, 6-(4-Methoxybenzyl)-9-(pyridin-4-ylmethyl)-8,9,10,11-tetrahydropyrido[4′,3′:4,5]thieno[3,2-e][1,2,4]triazolo[1,5-c]pyrimidin-5(6H)-one]",>7
14,"COc1ccc(Cn2c(=O)n3ncnc3c3c4c(sc32)CN(Cc2nccn2C)CC4)cc1 [Example 122, 6-(4-Methoxybenzyl)-9-((1-methyl-1H-imidazol-2-yl)methyl)-8,9,10,11-tetrahydropyrido[4′,3′:4,5]thieno[3,2-e][1,2,4]triazolo[1,5-c]pyrimidin-5(6H)-one]",>7
15,COc1ccc(Cn2c(=O)n3ncnc3c3c4c(sc32)CN(Cc2scnc2C)CC4)cc1 [Example 123],>7
16,"COc1ccc(Cn2c(=O)n3ncnc3c3c4c(sc32)CN(CC2COCCO2)CC4)cc1 (stereo not shown) [Example 125, 9-((1,4-Dioxan-2-yl)methyl)-6-(4-methoxybenzyl)-8,9,10,11-tetrahydropyrido[4′,3′:4,5]thieno[3,2-e][1,2,4]triazolo[1,5-c]pyrimidin-5(6H)-one]",>7
17,COc1ccc(Cn2c(=O)n3ncnc3c3c4c(sc32)CN(CC2CCC(=O)O2)CC4)cc1 (stereo not shown) [Example 126],>7
18,"COc1ccc(Cn2c(=O)n3ncnc3c3c4c(sc32)CN(Cc2ccc(F)cc2)CC4)cc1 [Example 127, 9-(4-Fluorobenzyl)-6-(4-methoxybenzyl)-8,9,10,11-tetrahydropyrido[4′,3′:4,5]thieno[3,2-e][1,2,4]triazolo[1,5-c]pyrimidin-5(6H)-one]",>7
19,"COc1ccc(Cn2c(=O)n3ncnc3c3c4c(sc32)CN(Cc2ccccc2F)CC4)cc1 [Example 128, 9-(2-Fluorobenzyl)-6-(4-methoxybenzyl)-8,9,10,11-tetrahydropyrido[4′,3′:4,5]thieno[3,2-e][1,2,4]triazolo[1,5-c]pyrimidin-5(6H)-one]",>7
20,"O=c1n(Cc2ccc(Cl)cc2F)c2sc3c(c2c2ncnn12)CCN(Cc1ccccn1)C3 [Example 130, 6-(4-Chloro-2-fluorobenzyl)-9-(pyridin-2-ylmethyl)-8,9,10,11-tetrahydropyrido[4′,3′:4,5]thieno[3,2-e][1,2,4]triazolo[1,5-c]pyrimidin-5 (6H)-one]",>7
21,Cn1ccnc1CN1CCc2c(sc3c2c2ncnn2c(=O)n3Cc2ccc(Cl)cc2F)C1 [Example 131],>7
22,"O=c1n(Cc2ccc(Cl)cc2F)c2sc3c(c2c2ncnn12)CCN(Cc1ncccn1)C3 [Example 132, 6-(4-Chloro-2-fluorobenzyl)-9-(pyrimidin-2-ylmethyl)-8,9,10,11-tetrahydropyrido[4′,3′:4,5]thieno[3,2-e][1,2,4]triazolo[1,5-c]pyrimidin-5 (6H)-one]",>7
23,"COc1ccc(Cn2c(=O)n3ncnc3c3c4c(sc32)CN(CC2CCCOC2)CC4)cc1 (stereo not shown) [Example 134, 6-(4-Methoxybenzyl)-9-((tetrahydro-2H-pyran-3-yl)methyl)-8,9,10,11-tetrahydropyrido[4′,3′:4,5]thieno[3,2-e][1,2,4]triazolo[1,5-c]pyrimidin-5(6H)-one]",>7
24,"COc1ccc(Cn2c(=O)n3ncnc3c3c4c(sc32)CN(CC2CCCOC2)CC4(F)F)cc1 (stereo not shown) [Example 136, 11,11-Difluoro-6-(4-methoxybenzyl)-9-((tetrahydro-2H-pyran-3-yl)methyl)-8,9,10,11-tetrahydropyrido[4′,3′:4,5]thieno[3,2-e][1,2,4]triazolo[1,5-c]pyrimidin-5(6H)-one]",>7
25,"COc1ccc(Cn2c(=O)n3ncnc3c3c4c(sc32)CN(Cc2ncccn2)CC4)c(F)c1 [Example 137, 6-(2-Fluoro-4-methoxybenzyl)-9-(pyrimidin-2-ylmethyl)-8,9,10,11-tetrahydropyrido[4′,3′:4,5]thieno[3,2-e][1,2,4]triazolo[1,5-c]pyrimidin-5 (6H)-one]",>7
26,"COc1ccc(Cn2c(=O)n3ncnc3c3c4c(sc32)CN(Cc2nccn2C)CC4)c(F)c1 [Example 138, 6-(2-Fluoro-4-methoxybenzyl)-9-((1-methyl-1H-imidazol-2-yl)methyl)-8,9,10,11-tetrahydropyrido[4′,3′:4,5]thieno[3,2-e][1,2,4]triazolo[1,5-c]pyrimidin-5(6H)-one]",>7
